# From patent publication US10487117B2, “Antimicrobial peptide for nosocomial infections” (priority 2015, dated 2019)
# Several values for one entry are separate records, joined by “and”; a condition that tells them apart may be missing. Identical values can stand only once. Residues, ends and D or L forms follow the SMILES beside them.
# Tests used:
# [1] = test system: biofilm-producing microorganism; assay: Antimicrobial and antibiofilm activities of peptides from the design process; assay type: cell-based; settings: peptide from the design process
# Source text: Furthermore, even though the peptide has been designed with the RNAse 3 sequence as starting point, the peptide has surprising advantages in respect of the RNase 3 due to the specific deletion and selection of the amino acids conforming the peptide amino acid. […] This is the case of the peptide ECP(7-13)(32-36) with sequence SEQ ID NO: 7.
# [2] = test system: planktonic P. aeruginosa; assay type: cell-based, Pseudomonas aeruginosa; settings: planktonic, 4 h
# Method: The microbial cell viability was then assayed using the BacTiter-Glo™ luminescent kit. […] No cell reduction was detected for the peptide GL-13 even for the maximum concentration assayed (50 μM).
# (§1) Bacterial viability was assayed using the BacTiter-Glo™ microbial cell viability kit. Briefly, protein/peptides were dissolved in 10 mM sodium phosphate, 0.1M buffer, pH 7.5, serially diluted from 50 to 0.1 μM and tested in a 96-well microtiter plate containing P. aeruginosa planktonic (OD600˜0.2) or 24 h formed biofilm for 4 h at 37° C. Fifty microliters of BacTiter-Glo™ reagent was added to each well according to the manufacturer's instructions and incubated at room temperature for 15 min. Luminescence was read on a Victor3 plate reader with a 3-s integration time. Fifty percent (ED50) and total inhibitory concentrations were calculated by fitting the data to a dose-response curve.
# [3] = test system: planktonic P. aeruginosa; assay: Minimum agglutination concentration (MAC) assay; assay type: cell-based, Pseudomonas aeruginosa; settings: 1 h at room temperature, mean ± SEM
# Method: Bacterial agglutination of RNase 3 is important for the antimicrobial activity of the protein. Therefore, the peptide capability to agglutinate P. aeruginosa cells was assayed by the minimum agglutination concentration assay (MAC) (Table 3).
# Bacterial cells were grown in LB at 37° C. to an OD600=0.2, centrifuged at 5000×g for 2 min and resuspended in 10 mM Tris-HCl buffer, 0.1 M NaCl, pH 7.5. An aliquot of 100 μl of the bacterial suspension was treated with increasing protein/peptide concentrations (from 0.01 to 50 μM) and incubated at room temperature for 1 h. The aggregation behavior was observed by visual inspection and the agglutinating activity is expressed as the minimum agglutinating concentration of the sample tested, as previously described (Torrent M. et al. 2012).
# [4] = test system: planktonic P. aeruginosa; assay: SYTOX Green membrane permeabilization assay, planktonic; assay type: cell-based, Pseudomonas aeruginosa; settings: 10% Triton X-100 as maximum reference
# Method: Further insight into the membrane-permeabilizing effect of the selected AMPs against P. aeruginosa was evaluated by the Sytox Green assay. Local membrane disturbances allow the cell uptake of the fluorescent Sytox Green dye that subsequently stains the cell nucleic acids; the fluorescence increase is registered to monitor the cell membrane permeabilization. Therefore, the half permeabilization action (ED50) was measured, and the total permeabilization activity expressed as a percentage (Table 5). […] On the other hand, WY-12 and CA-M required a 6- to 7-fold greater concentration than RNase 3 to produce half of their permeabilizing effect.
# (§2) Membrane permeabilization was followed using the method SYTOX Green Fluorescence membrane permeabilization assay. In the planktonic assay, bacterial cells were grown at 37° C. to an OD600=0.2, centrifuged at 5000×g for 5 min, and resuspended in 1×PBS to an OD600=0.2. An aliquot of 200 μl was then transferred to a microtiter plate. For biofilm assay, 24 h formed P. aeruginosa biofilm in a 96-well microtiter plate were washed three times with sterile PBS. SYTOX Green was added to a final concentration of 1 μM and incubated 15 min in darkness. Changes in the fluorescence were continuously recorded after addition of a serially diluted protein/peptides from 50 to 0.1 μM in a Victor3 plate reader. The peptide concentration required to achieve half of total and total membrane permeabilization achieved after 40 min was estimated from nonlinear regression analysis as previously described (Pulido D. et al. Antimicrob Agents Chemother 2013). A maximum reference value was taken for Triton X-100 at 10%.
# [5] = test system: pre-established P. aeruginosa biofilm; assay: Biofilm eradication assay, crystal violet staining; assay type: cell-based, Pseudomonas aeruginosa
# Method: Following, the biofilm eradication activity was determined (FIG. 1 and Table 6). […] Moreover, the biofilm eradication activity of all the tested reference peptides was well above the maximum concentration tested (50 μM), except for RN3(5-17P22-36) which was able to eradicate the biofilm close to 50 μM.
# (§3) Biofilm formation assay was modified from the previously described protocol (Huedo P. et al. 2014). Briefly, overnight cultures of P. aeruginosa were centrifuged at 5000×g for 5 min, washed and adjusted to an OD600=0.1 in tryptic soy medium (TSB). Two hundred microliters of the bacterial suspension were dispensed in each well of a polystyrene 96-well microtiter plate (Greiner Bio-one, France). The plate was incubated at 37° C. on an orbital shaker (30 rpm). The media was exchanged with fresh pre-warmed TSB after 4 h, in order to remove the non-attached bacteria. After 24 h incubation, the formation of biofilm was then evaluated using the crystal violet staining technique (Stepanovic S. et al. 2000). Briefly, the plates were washed three times with PBS, fixed at 60° C. for 1 h, and stained for 15 min with 200 μl of 0.1% crystal violet. After the dye was discarded, plates were rinsed in PBS and allowed to dry for 30 min at 37° C. Crystal violet was dissolved in 250 μl of 95% ethanol for 15 min, and the OD570 of the extracted dye was measured using a Victor3 plate reader (Perkin-Elmer, Waltham, Mass.).
# Biofilms were grown as above. Twenty-four hour formed P. aeruginosa biofilm was washed three times with sterile PBS, and rinsed with 10 mM sodium phosphate buffer pH 7.5. Each well was treated with increasing protein/peptide concentrations (from 0.01 to 50 μM) and incubated at 37° C. for 4 h. The biofilm eradication was then evaluated using the crystal violet staining technique (Stepanovic S. et al. 2000). The ability of the antimicrobial peptides to disperse and reduce the biofilm mass of preformed biofilms was calculated. The peptide concentration required to achieve total preformed biofilm eradication after 4 h incubation time was estimated. A maximum reference value was taken for Triton X-100 at 10%. The minimum biofilm eradication concentration (MBEC), defined as the protein/peptide concentration where the 99.9% of the biofilm mass is eradicated was estimated.
# [6] = Biofilm cell mortality, BacTiter-Glo luminescent assay; assay type: cell-based, Pseudomonas aeruginosa; settings: 24 h formed biofilm; 4 h at 37° C.; 10% Triton X-100 as maximum reference; N.D. = not detected at 50 μM; read-out: Biofilm cell mortality (%max)
# Method: as §1
# As a first approach, the biofilm cell viability was monitored using the BacTiter-Glo™ luminescent assay. Therefore, the antimicrobial action of the studied AMPs was determined on already established P. aeruginosa biolfilms (FIG. 1 and Table 6). […] However, for all the active peptides, the concentrations needed to produce an equivalent effect in biofilms were between 2 to 10 times higher than in planktonic cultures. […] At the same time, we applied the crystal violet technique to assess the peptide ability to disperse pre-established P. aeruginosa biofilms.
# as §3
# [7] = test system: established P. aeruginosa biofilms; assay: DiSC3(5) membrane depolarization assay on biofilm; assay type: cell-based, Pseudomonas aeruginosa; settings: maximum percentage at final incubation time, 10% Triton X-100 reference
# Method: Membrane depolarization was followed using the method described earlier (Torrent M. et al. 2008). Briefly, bacterial cells were grown at 37° C. to an OD600=0.2, centrifuged at 5000×g for 7 min, washed with 5 mM Hepes at pH 7.2 containing 20 mM glucose, and resuspended in 5 mM Hepes-KOH, 20 mM glucose, and 100 mM KCl at pH 7.2 to an OD600=0.05 and 200 μl were transferred to a microtiter plate for planktonic assays. For biofilm assay, 24 h formed P. aeruginosa biofilm in a 96-well microtiter plate were washed three times with sterile PBS. Afterwards P. aeruginosa biofilms were washed with 5 mM Hepes at pH 7.2 containing 20 mM glucose, and rinsed in 5 mM Hepes-KOH, 20 mM glucose, and 100 mM KCl at pH 7.2. In both cases, DiSC3(5) was added to a final concentration of 0.4 μM and changes in the fluorescence were continuously recorded after addition of peptides at 10 μM in a Victor3 plate reader. A maximum reference value for total depolarization is calculated for Triton X-100 at 10%. Alternatively, changes in the fluorescence were continuously recorded after addition of a serially diluted protein/peptides from 50 to 0.1 μM. The peptide concentration required to achieve half of total and total membrane depolarization after 40 min incubation time was estimated from nonlinear regression analysis as previously described (Torrent M. et al. 2010)
# (§4) Thereupon, the antimicrobial mechanism of action of the RNase 3 derived peptide on P. aeruginosa biofilms was further characterized with the depolarization and permeabilization assays. As applied for the P. aeruginosa planktonic culture, the fluorescent DisC3(5) assay was also used here in order to monitor the depolarization activity of the studied protein and peptides against established biofilms. Therefore, we have measured the half depolarization action (ED50), and the total depolarization activity expressed as a percentage (Table 7). […] Similar results were obtained for the Sytox Green permeabilization assay, where the total permeabilization effect was hindered for all the AMPs tested, and between two to ten times higher concentrations were required to achieve half of the biofilm cell permeabilizing effect in comparison to the planktonic cells.
# [8] = test system: established P. aeruginosa biofilms; assay: SYTOX Green membrane permeabilization assay on biofilm; assay type: cell-based, Pseudomonas aeruginosa; settings: maximum percentage at final incubation time, 10% Triton X-100 reference
# Method: as §2, §4
Compound,antimicrobial and antibiofilm activities [1],IC50 [2],MAC (minimum agglutinating activity) [3],Permeabilization %max [4],"Biofilm eradication (%max) ([5]; 24 h formed biofilm, 4 h at 37° C., 10% Triton X-100 as maximum reference, listed as the peptide of the invention)","biofilm eradication concentration (MBEC) ([5]; total eradication of preformed biofilm, 4 h, max tested 50 μM)",mortality [6],Depolarization Mean % ± SEM [7],Permeabilization Mean % ± SEM [8]
"ECP(7-13)(32-36): design-process peptide with sequence SEQ ID NO: 7, lacking the antimicrobial and antibiofilm activities (RAQWFAINYRWR; peptide ECP(7-13)(32-36))",did not display the antimicrobial and antibiofilm activities,–,–,–,–,–,–,–,–
CC[C@H](C)[C@H](NC(=O)[C@H](C)NC(=O)[C@H](CCCNC(=N)N)NC(=O)[C@H](CCSC)NC(=O)[C@H](C)NC(=O)[C@@H](NC(=O)[C@@H](NC(=O)[C@H](CCCNC(=N)N)NC(=O)[C@@H]1CCCN1C(=O)[C@H](CO)NC(=O)[C@@H](NC(=O)[C@H](Cc1c[nH]cn1)NC(=O)[C@H](CCC(N)=O)NC(=O)[C@@H](NC(=O)[C@H](C)NC(=O)[C@H](Cc1ccccc1)NC(=O)[C@H](Cc1c[nH]c2ccccc12)NC(=O)[C@H](CCC(N)=O)NC(=O)[C@H](C)NC(=O)[C@H](CCCNC(=N)N)NC(=O)[C@@H](NC(=O)[C@H](Cc1ccccc1)NC(=O)[C@@H]1CCCN1C(=O)[C@@H](N)CCCNC(=N)N)[C@@H](C)O)[C@@H](C)CC)[C@@H](C)CC)[C@@H](C)O)[C@@H](C)CC)C(=O)N[C@@H](CC(N)=O)C(=O)N[C@@H](CC(N)=O)C(=O)N[C@@H](Cc1ccc(O)cc1)C(=O)N[C@@H](CCCNC(=N)N)C(=O)N[C@@H](Cc1c[nH]c2ccccc12)C(=O)N[C@@H](CCCNC(=N)N)C(N)=O [RN3(5-17P22-36)] (H-RPFTRAQWFAIQHISPRTIAMRAINNYRWR-NH2; N-terminus assumed),–,1250 ± 100 nM,1.5 µM and 1.50 ± 0.08 µM,63.63 ± 1.42%,totally disperse the cell community layer,~50 µM,96.4 ± 2.41%,73.51 ± 1.94%,64.26 ± 5.44%
